Source: the NIST ThermoML archive (doi:10.1016/j.jct.2014.10.001)
Values joined by “and” are separate entries in the source; they are usually repeats but may differ in a detail not shown here. Equal values may be shown once.

Experiment: xn = mol fraction of the nth substance listed
Details: Gas, Buoyancy - hydrostatic balance with magnetic suspension - one sinker

FCC(F)(F)F [1,1,1,2-tetrafluoroethane] + CCC
Details	mass density
258.14 K, 113.78 kPa, x1 = 0.5401	4.1262 kg/m3
258.14 K, 154.11 kPa, x1 = 0.5401	5.651 kg/m3
258.15 K, 190.72 kPa, x1 = 0.5401	7.0674 kg/m3
258.15 K, 242.95 kPa, x1 = 0.5401	9.1445 kg/m3
258.16 K, 154.01 kPa, x1 = 0.7989	6.8087 kg/m3
258.16 K, 168.96 kPa, x1 = 0.2391	4.7661 kg/m3
258.17 K, 103.24 kPa, x1 = 0.2391	2.8628 kg/m3
258.17 K, 106.9 kPa, x1 = 0.7989	4.6538 kg/m3
258.18 K, 197.88 kPa, x1 = 0.7989	8.8817 kg/m3
258.19 K, 252.34 kPa, x1 = 0.2391	7.2822 kg/m3
263.13 K, 101.57 kPa, x1 = 0.5401	3.5945 kg/m3
263.13 K, 101.58 kPa, x1 = 0.5401	3.5946 kg/m3
263.14 K, 134.16 kPa, x1 = 0.6201	5.0876 kg/m3
263.14 K, 166.53 kPa, x1 = 0.5401	5.9917 kg/m3
263.14 K, 183.78 kPa, x1 = 0.7989	8.0203 kg/m3
263.14 K, 220.07 kPa, x1 = 0.5401	8.0347 kg/m3
263.14 K, 225.37 kPa, x1 = 0.7989	9.9705 kg/m3
263.14 K, 281.67 kPa, x1 = 0.5401	10.4652 kg/m3
263.15 K, 99.9 kPa, x1 = 0.7989	4.2498 kg/m3
263.15 K, 102.04 kPa, x1 = 0.2391	2.7715 kg/m3
263.15 K, 145.63 kPa, x1 = 0.7989	6.2807 kg/m3
263.15 K, 194.24 kPa, x1 = 0.6201	7.4918 kg/m3
263.15 K, 259.7 kPa, x1 = 0.6201	10.2107 kg/m3
263.16 K, 203.74 kPa, x1 = 0.2391	5.6732 kg/m3
263.17 K, 305.05 kPa, x1 = 0.2391	8.7279 kg/m3
268.12 K, 231.64 kPa, x1 = 0.7989	10.0266 kg/m3
268.13 K, 104.95 kPa, x1 = 0.7989	4.3792 kg/m3
268.13 K, 150.69 kPa, x1 = 0.7989	6.3684 kg/m3
268.13 K, 213.45 kPa, x1 = 0.6201	8.092 kg/m3
268.14 K, 104.92 kPa, x1 = 0.5401	3.6381 kg/m3
268.14 K, 125.37 kPa, x1 = 0.6201	4.6466 kg/m3
268.14 K, 190.18 kPa, x1 = 0.7989	8.1303 kg/m3
268.14 K, 285.39 kPa, x1 = 0.7989	12.5661 kg/m3
268.14 K, 300.29 kPa, x1 = 0.6201	11.6624 kg/m3
268.15 K, 183.8 kPa, x1 = 0.5401	6.4973 kg/m3
268.15 K, 268.92 kPa, x1 = 0.5401	9.7174 kg/m3
268.16 K, 198.02 kPa, x1 = 0.2391	5.3921 kg/m3
268.16 K, 341.03 kPa, x1 = 0.5401	12.5709 kg/m3
268.17 K, 119.34 kPa, x1 = 0.2391	3.1919 kg/m3
268.17 K, 286.65 kPa, x1 = 0.2391	7.9728 kg/m3
268.17 K, 365.93 kPa, x1 = 0.2391	10.3898 kg/m3
273.1 K, 170.36 kPa, x1 = 0.5401	5.8806 kg/m3
273.1 K, 283.04 kPa, x1 = 0.6201	10.6873 kg/m3
273.1 K, 358.16 kPa, x1 = 0.6201	13.8005 kg/m3
273.1 K, 411.8 kPa, x1 = 0.5401	15.1107 kg/m3
273.11 K, 105.09 kPa, x1 = 0.5401	3.5743 kg/m3
273.11 K, 121.2 kPa, x1 = 0.6201	4.3969 kg/m3
273.11 K, 251.59 kPa, x1 = 0.5401	8.853 kg/m3
273.11 K, 262.93 kPa, x1 = 0.7989	11.2212 kg/m3
273.11 K, 323.14 kPa, x1 = 0.5401	11.5758 kg/m3
273.12 K, 100.04 kPa, x1 = 0.7989	4.0831 kg/m3
273.12 K, 122.4 kPa, x1 = 0.2391	3.2081 kg/m3
273.12 K, 206.06 kPa, x1 = 0.6201	7.6287 kg/m3
273.12 K, 451.8 kPa, x1 = 0.2391	12.8024 kg/m3
273.13 K, 144.28 kPa, x1 = 0.7989	5.9572 kg/m3
273.13 K, 204.71 kPa, x1 = 0.2391	5.4646 kg/m3
273.13 K, 216.26 kPa, x1 = 0.7989	9.1063 kg/m3
273.13 K, 288.63 kPa, x1 = 0.2391	7.853 kg/m3
273.13 K, 319.28 kPa, x1 = 0.7989	13.8595 kg/m3
273.13 K, 364.79 kPa, x1 = 0.2391	10.1086 kg/m3
278.12 K, 123.52 kPa, x1 = 0.6201	4.396 kg/m3
278.13 K, 236.83 kPa, x1 = 0.6201	8.6438 kg/m3
278.14 K, 337.13 kPa, x1 = 0.6201	12.6083 kg/m3
278.14 K, 433.01 kPa, x1 = 0.6201	16.603 kg/m3
278.15 K, 103.41 kPa, x1 = 0.7989	4.1428 kg/m3
278.15 K, 194.41 kPa, x1 = 0.5401	6.606 kg/m3
278.15 K, 286.8 kPa, x1 = 0.7989	12.0403 kg/m3
278.15 K, 289.3 kPa, x1 = 0.5401	10.0435 kg/m3
278.15 K, 381.08 kPa, x1 = 0.7989	16.4363 kg/m3 and 16.4338 kg/m3
278.15 K, 419.02 kPa, x1 = 0.5401	15.0163 kg/m3
278.15 K, 504.76 kPa, x1 = 0.5401	18.5053 kg/m3
278.16 K, 115.44 kPa, x1 = 0.5401	3.8575 kg/m3
278.16 K, 152.51 kPa, x1 = 0.7989	6.1813 kg/m3
